The values below are quoted from earlier work in patent US20110092535A1, “Novel Epilepsy Treatment” (priority 2006, published 2011).

The subject of the data set is maximal electric shock-induced seizures. The following applies: rats.

Where two headings read alike, the source gives them in different places.

With `Cc1nccn1CC1CCc2c(c3ccccc3n2C)C1=O` (centres unmarked) [Ondansetron], the “effect against maximal electric shock-induced seizures” value (higher doses (>2 mg/kg)) is listed as “ineffective” and the “effect against maximal electric shock-induced seizures” value (low doses) is recorded as “effective”.
